Paper PMC10916623, “Tissue distribution and pharmacokinetics of isoxanthohumol from hops in rodents” (Food Science & Nutrition, 2023)
Several values for one entry are separate records, joined by “and”; a condition that tells them apart may be missing. Identical values can stand only once. Each block holds one molecule with its values, some of them ahead of it.

Tests used:
[1] = Plasma pharmacokinetics after single-gavage administration of IXA to mice; assay type: in vivo, C57/BL6 mice; conditions: single oral IXA 50 mg/kg BW, data not shown
Procedure: (§1) Six‐week‐old male C57/BL6 mice (initial BW: 19–24 g; Japan SLC, Shizuoka, Japan) were housed in a room maintained at 23–26°C with a 12‐h light–dark cycle. During the 1‐week acclimatization period, they were allowed free access to a commercial diet (Oriental Yeast Co., Tokyo, Japan) and water. Two days before the experiment, they were fed AIN‐93M (Oriental Yeast Co.). Before drug administration, they were fasted for 20 h, but had free access to water. IXA dissolved in 3% hydroxypropyl‐β‐cyclodextrin and 5% ethanol (Fujifilm; Wako Pure Chemical Corp., Osaka, Japan) was named the injection solution and administered (50 mg/kg BW) to mice intragastrically using a gastric feeding tube (AS ONE, Osaka, Japan). Blood, brain, thymus, heart, lung, liver, spleen, pancreas, kidney, and gastrocnemius muscle were collected 0.5, 1, 2, 4, 8, 12, 24, and 48 h after administration. We also set up a control group, and mice in this group were sacrificed just before we started administering IXA at 0 h. At 4 h after administration, mice were allowed free access to AIN‐93 M. Plasma was isolated by centrifugation at 17 × 10^3 m/s^2 (5911, Kubota, Tokyo, Japan) for 5 min at 4°C. All tissues were dissected, weighed, and immediately frozen in liquid nitrogen. All samples were stored at −80°C until analysis.
(§2) Plasma samples were deconjugated by β‐glucuronidase type H‐1 (which has β‐glucuronidase and sulphatase activity; Sigma, St. Louis, MO, USA; G0751) to convert aglycon from conjugated metabolites of IXA and 8‐PN, as described in a previous report (Y. Tanaka et al., [2022]). Briefly, 100 μL of plasma was mixed with 900 μL of 0.1 mol/L sodium acetate buffer (pH 4.7), 200 μL of 50 mmol/L ascorbic acid, and 1 mL of 1.67 μkat/100 μL of β‐glucuronidase type H‐1, and then incubated for 30 min at 37°C. Then, 2.4 nmol of QTM was added to the samples as the internal standard. The liberated aglycone was extracted using ethyl acetate (Kanto Kagaku, 14,029‐2B).
(§3) The plasma and tissue extracts were evaporated using a Centrifugal Evaporator (EYERA, Tokyo, Japan, CVE‐3000). The samples were stored at −80°C until the next day. Then, the samples were dissolved in 120 μL of a mobile phase solution and divided into two test tubes. The first sample was injected into the HPLC with an ultraviolet detection system (Shimadzu, Kyoto, Japan).
(§4) IXA and 8‐PN concentrations were determined by their respective standard curves using an internal standard method. A Cadenza 3‐μm CD‐C18 HPLC column (CD005, 150 × 4.6 mm; Imtakt Corporation, Kyoto, Japan) was equipped for HPLC (λ = 295 nm). The mobile phase consisted of methanol:water:acetic acid (60:35:5, v/v/v). The flow rate was set at 1.0 mL/min. […] Because clear peaks over 4.5 pmol/sample were detected for IXA and 8‐PN by visual evaluation, we determined that these concentrations were the peak limit of detections for each flavonoid. We applied calibration curves in the IXA/QTM concentration ratio range of 0.007–35.1 (R ^2 = .9955).

[2] = Tissue distribution after single-gavage administration of IXA to mice; assay type: in vivo, C57/BL6 mice; conditions: for 8-PN accumulation, single-ingestion test (at 24 h) / AUC (0–48 h) 8-PN/IXA / C max 8-PN: mice; for 8-PN accumulation, single-ingestion test (at 24 h): single IXA 50 mg/kg BW; for 8-PN accumulation, single-ingestion test (at 24 h) / C max 8-PN: metabolite; for AUC (0–48 h) 8-PN/IXA / C max 8-PN: single oral IXA 50 mg/kg BW
Procedure: as §1
(§5) Tissue sample deconjugation was performed as described in a previous report with slight modifications (Tanaka et al., [2022]). Tissues were homogenized in phosphate‐buffered saline (pH 7.4), which was nine times the tissue volume. The tissue homogenate was incubated in 50 mmol/L ascorbic acid (one‐fifth the volume of phosphate‐buffered saline) and 1.67 μkat/100 μL of β‐glucuronidase type H‐1 in 0.1 mol/L sodium acetate buffer (pH 4.7, nine times the volume of the sample) for 2 h at 37°C. Then, 2.4 nmol of QTM was added to samples as an internal standard. The supernatant was isolated by centrifugation at 17 × 10^3 m/s^2 (Kubota) for 5 min at 4°C. Then, methanol (Kanto Kagaku, 25183‐2B) was added to the pellets, and they were shaken for 1 min. The methanol layer and pellets were separated by centrifugation at 17 × 10^3 m/s^2 (Kubota, RY1071‐A000) for 5 min at 4°C. Methanol extraction was repeated three times. Finally, methanol extracts were mixed with the supernatant (the composition of the mixture was 30% methanol) and then applied to an Inert Sep C8 (200 mg/3 mL; GL Sciences, Tokyo, Japan; 5010‐61082) cartridge. The cartridge was preconditioned with 6 mL of 2% acetic acid in methanol, and then 9 mL of 2% acetic acid in water. The extracted tissue was passed through the cartridge, and it was washed with 5 mL of 2% acetic acid in 30% methanol aq. The flavonoids were eluted with 10 mL of 2% acetic acid in methanol.
as §3, §4

[3] = Tissue and plasma accumulation after daily gavage administration of IXA to mice for 14 days; assay type: in vivo, C57/BL6 mice; conditions: IXA 30 mg/kg BW daily 14 days, metabolite, 24 h after final administration
Procedure: Animal species, age, sex, initial BW, feeding conditions, and dosage method were the same as those for the single gavage administration test, but the dose was 30 mg/kg BW. […] Daily gavage administration without fasting was performed at 12:00 PM for 14 days. The final BW was 21–26 g. Blood, brain, thymus, heart, lung, liver, spleen, kidney, and gastrocnemius muscle were collected 24 h after the final administration. The sample collection method was the same as that for the single gavage administration test.
as §2, §5, §3, §4

[4] = Liver accumulation after intragastric IXA administration at various concentrations to rats for 28 days; assay type: in vivo, Sprague–Dawley rats; conditions: rat liver
Procedure: Six‐week‐old female Sprague–Dawley rats (Charles River Laboratories Japan, Inc., Yokohama, Japan) were housed in a room maintained at 20–26°C on a 12‐h light–dark cycle. The initial BW of rats was 176–179 g. They were allowed free access to a commercial diet (CRF‐1) and water during the experiment. IXA dissolved in injection solution was administered intragastrically to rats (112.5, 225, 360, 450, and 1500 mg/kg BW) daily for 28 days using a gastric feeding tube. We also set up a control group to which the injection solution was administered. The final BW of rats was 231–241 g. The liver was collected the day after the last administration. The rats were fasted for 16–24 h before they were euthanized, but they had free access to water. Liver samples were stored at −80°C until analysis.
as §5
The plasma and tissue extracts were evaporated using a Centrifugal Evaporator (EYERA, Tokyo, Japan, CVE‐3000). The samples were stored at −80°C until the next day. Then, the samples were dissolved in 120 μL of a mobile phase solution and divided into two test tubes. […]
IXA and 8‐PN concentrations were determined by their respective standard curves using an internal standard method. […] Because clear peaks over 4.5 pmol/sample were detected for IXA and 8‐PN by visual evaluation, we determined that these concentrations were the peak limit of detections for each flavonoid. […]

8-PN in the plasma during the experiment [1]: not observed
8-PN accumulation, single-ingestion test (at 24 h) ([2]; liver): 4.6 ± 1.8 nmol/g of tissue
AUC (0–48 h) 8-PN/IXA ([2]; liver): 26%
C max 8-PN ([2]; liver, measured at 24 h): 4.6 ± 1.8 nmol/g of tissue
8-PN accumulation, single-ingestion test (at 24 h) ([2]; lung): 1.8 ± 0.9 nmol/g of tissue
AUC (0–48 h) 8-PN/IXA ([2]; lung): 109% and 109.3%
C max 8-PN ([2]; lung, measured at 2 h): 4.5 ± 2.5 nmol/g of tissue
AUC (0–48 h) 8-PN/IXA ([2]; pancreas): 1%
C max 8-PN ([2]; pancreas, measured at 1 h): 0.6 ± 0.5 nmol/g of tissue
8-PN accumulation, 14-day repeated-ingestion test ([3]; brain): 0.8 ± 0.7 nmol/g of tissue
8-PN accumulation, 14-day repeated-ingestion test ([3]; heart): not detected
8-PN accumulation, 14-day repeated-ingestion test ([3]; liver): 2.1 ± 0.4 nmol/g of tissue
8-PN accumulation, 14-day repeated-ingestion test ([3]; lung): 3.9 ± 3.5 nmol/g of tissue
8-PN accumulation, 14-day repeated-ingestion test ([3]; muscle): 0.1 ± 0.0 nmol/g of tissue
8-PN accumulation, 14-day repeated-ingestion test ([3]; plasma): not detected
8-PN accumulation, 14-day repeated-ingestion test ([3]; spleen): 0.6 ± 0.6 nmol/g of tissue
8-PN accumulation, 14-day repeated-ingestion test ([3]; thymus): 0.6 ± 0.5 nmol/g of tissue
amount of 8-PN relative to that of IXA (times higher) ([4]; IXA 112.5 mg/kg, 28 days): approximately two
8-PN levels compared with those of IXA ([4]; IXA 1500 mg/kg, 28 days): approximately 7.4%
correlation coefficient between dose-concentration and accumulation ([4]; IXA 112.5–1500 mg/kg BW once a day for 28 days, Pearson): −.255
Molecule: 4,5,7‐trihydroxy‐8‐prenylflavanone [8‐PN]

Molecule: CC(C)=CCc1c(O)cc2c(c1O)C(=O)C[C@@H](c1ccc(O)cc1)O2 [6‐PN, 6‐prenylnaringenin]
presence of 6-PN in the samples analyzed in this study ([2]; mouse, in vivo): not detected
